Data reported in article PMC10891162 (Scientific Reports, 2024).

Assays:
HEK293 cells = assay: cAMP detection in HEK293 cells treated with Forskolin; assay type: cell-based; conditions: 30 min treatment, Fig. 5D, n = 3
Description: (§1) Media was removed from wells and 5µL of the diluted compounds were added to each well. […] Plates were mixed on an orbital shaker for 5 min at 400 rpm. […] 5µL of 2% trichloroacetic acid (TCA, Fisher Scientific SA9410-500) in water were added to wells to terminate reactions and lyse cells. […] Plates were mixed on an orbital shaker for 5 min at 400 rpm. […] Plates were mixed on an orbital shaker for 5 min at 400 rpm then incubated for 30 min at room temperature. […] Luminescence signal was measured on a GloMax Discover Microplate Reader within 15 min.
(§2) The assays were conducted by treatment of cells followed by lysis with 2% TCA, which also terminates the reactions. Cell lysates were then incubated with antibodies and tracer diluted in 0.3 M Tris buffer (pH 9.0; for neutralization) for 30 min after which time the detection reagent was added.

β-Adrenergic receptor = assay: cAMP detection in A375 cells, endogenous β-Adrenergic receptor; assay type: cell-based; conditions: Fig. 5C, n = 3; for Change of cAMP levels, β-Adrenergic antagonist: in the presence of 50 nM Isopreterenol; for Change of cAMP levels, β-Adrenergic agonist: 5 min treatment
Description: as §1, §2

PDE4A1A = target: T1, PDE4A1A (Homo sapiens, UniProt P27815); assay: PDE4 inhibition study (cAMP Lumit detection); assay type: biochemical; conditions: 20 ng PDE4A1A per reaction, 10 µM cAMP, n = 2, Fig. 4
T1 construct: purchased BPS Biosciences 60040
Description: Plates were mixed on an orbital shaker for 5 min at 400 rpm.

Dopamine D1 = Dopamine D1 (Homo sapiens, UniProt P21728); assay: cAMP detection in HEK293 cells stably transfected with DRD1; assay type: cell-based; conditions: n = 3
Description: as §1, §2

[1] = test system: Anti-cAMP primary antibody (GenScript A01509); assay: cAMP Lumit immunoassay: cAMP standard curve, specificity and competition testing; assay type: binding; conditions: n = 2; for Luminescence signal drop on titration instead of cAMP (specificity): concentrations up to 10 µM, Fig. 2C,D; for Interference with cAMP standard curve: metabolite included at 10 µM in cAMP titration, Fig. 2E,F
Adenosine receptor = assay: cAMP detection in A375 cells, endogenous Adenosine receptor; assay type: cell-based; conditions: 1 h treatment, Fig. 5D, n = 3
Description: as §1, §2

Chain of Dopamine D1 (P21728 whole entry): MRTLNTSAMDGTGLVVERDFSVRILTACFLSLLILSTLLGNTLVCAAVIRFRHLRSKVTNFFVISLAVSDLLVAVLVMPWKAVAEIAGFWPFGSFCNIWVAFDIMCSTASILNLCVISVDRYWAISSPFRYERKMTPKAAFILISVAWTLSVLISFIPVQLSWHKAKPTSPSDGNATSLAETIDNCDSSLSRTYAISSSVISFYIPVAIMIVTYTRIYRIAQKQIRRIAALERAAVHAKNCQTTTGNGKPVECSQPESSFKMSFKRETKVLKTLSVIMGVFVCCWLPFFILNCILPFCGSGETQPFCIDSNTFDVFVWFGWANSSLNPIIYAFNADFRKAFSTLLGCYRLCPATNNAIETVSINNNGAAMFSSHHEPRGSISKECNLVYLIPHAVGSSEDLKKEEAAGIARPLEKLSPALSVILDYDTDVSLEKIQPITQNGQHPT
T1 sequence (P27815 1-647 isoform P27815-4): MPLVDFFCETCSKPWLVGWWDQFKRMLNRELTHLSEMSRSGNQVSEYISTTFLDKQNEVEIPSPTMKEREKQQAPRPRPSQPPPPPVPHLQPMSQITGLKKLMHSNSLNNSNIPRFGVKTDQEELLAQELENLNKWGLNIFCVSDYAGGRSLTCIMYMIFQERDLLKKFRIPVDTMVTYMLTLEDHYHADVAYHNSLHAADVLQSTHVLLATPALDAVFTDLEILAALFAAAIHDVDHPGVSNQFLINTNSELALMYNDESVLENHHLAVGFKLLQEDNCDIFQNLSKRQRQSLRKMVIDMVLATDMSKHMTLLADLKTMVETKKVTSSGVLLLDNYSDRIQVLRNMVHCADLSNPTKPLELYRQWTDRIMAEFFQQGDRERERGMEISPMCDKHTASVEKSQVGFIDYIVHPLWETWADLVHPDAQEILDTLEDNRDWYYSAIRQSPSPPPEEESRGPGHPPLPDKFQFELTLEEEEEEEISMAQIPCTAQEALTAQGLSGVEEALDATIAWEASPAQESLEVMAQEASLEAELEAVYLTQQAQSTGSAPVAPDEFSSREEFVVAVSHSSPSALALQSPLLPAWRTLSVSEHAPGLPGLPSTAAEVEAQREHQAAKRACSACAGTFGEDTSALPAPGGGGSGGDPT

## C=C[C@@]1(C)CC(=O)[C@]2(O)[C@@]3(C)[C@@H](O)CCC(C)(C)[C@@H]3[C@H](O)[C@H](OC(C)=O)[C@@]2(C)O1 [Forskolin]
HEK293 cells
  Change of cAMP levels: cAMP levels increase

## C=CCc1ccccc1OCC(O)CNC(C)C (stereo not drawn) [Alprenolol]
β-Adrenergic receptor
  Change of cAMP levels, β-Adrenergic antagonist: cAMP levels reduction

## CCOc1ccccc1C(=O)NCc1coc(-c2ccc(OC(F)F)c(OC(C)C)c2)n1 [Difamilast]
PDE4A1A
  IC50: 7.3 nM

## CN1CCc2cc(Cl)c(O)cc2[C@@H](c2ccccc2)C1 [SCH23390]
Dopamine D1; HEK293 stably transfected with DRD1, in the presence of 100 nM SKF38393, Fig. 5A
  Change of cAMP levels, DRD1 antagonist: cAMP levels reduction

## Nc1nc2c(ncn2[C@@H]2O[C@@H]3COP(=O)(O)O[C@H]4[C@@H](O)[C@H](n5cnc6c(N)ncnc65)O[C@@H]4COP(=O)(O)O[C@H]3[C@H]2O)c(=O)[nH]1 [3′3′-cGAMP, 3′3′-cyclic guanosine monophosphate-adenosine monophosphate]
[1]
  Luminescence signal drop on titration instead of cAMP (specificity): None of the tested metabolites resulted in a significant luminescence signal drop
  Interference with cAMP standard curve: no effect

## CC(C)NCC(O)COc1cccc2ccccc12 (stereo not drawn) [Propranolol]
β-Adrenergic receptor
  Change of cAMP levels, β-Adrenergic antagonist: cAMP levels reduction

## Nc1nc2c(ncn2[C@@H]2O[C@@H]3COP(=O)(O)O[C@H]4[C@@H](O)[C@H](n5cnc6c(N)ncnc65)O[C@@H]4COP(=O)(O)O[C@@H]2[C@@H]3O)c(=O)[nH]1 [2′3′-cGAMP, 2′3′-cyclic guanosine monophosphate-adenosine monophosphate]
[1]
  Luminescence signal drop on titration instead of cAMP (specificity): None of the tested metabolites resulted in a significant luminescence signal drop
  Interference with cAMP standard curve: no effect

## Nc1nc2c(ncn2[C@@H]2O[C@@H]3COP(=O)(O)O[C@H]3[C@H]2O)c(=O)[nH]1 [cGMP, cyclic guanosine monophosphate]
[1]
  Luminescence signal drop on titration instead of cAMP (specificity): None of the tested metabolites resulted in a significant luminescence signal drop
  Interference with cAMP standard curve: no effect

## CC(C)NCC(O)c1ccc(O)c(O)c1 (stereo not drawn) [Isopreterenol, Isoproterenol]
β-Adrenergic receptor
  Change of cAMP levels, β-Adrenergic agonist: cAMP levels increase

## Oc1cc2c(cc1O)C(c1ccccc1)CNCC2 (stereo not drawn) [SKF38393]
Dopamine D1; HEK293 stably transfected with DRD1, 1 h treatment, Fig. 5A
  Change of cAMP levels, DRD1 agonist: cAMP levels increase

## CCNC(=O)[C@H]1O[C@@H](n2cnc3c(N)ncnc32)[C@H](O)[C@@H]1O [NECA]
Adenosine receptor
  Change of cAMP levels, Adenosine receptor agonist: cAMP levels increase

## CNC[C@H](O)c1ccc(O)c(O)c1 [Epinephrine]
β-Adrenergic receptor
  Change of cAMP levels, β-Adrenergic agonist: cAMP levels increase
